Assay results published in patent US6632794B1, “Insulin-like growth factor agonist molecules” (Genentech, Inc., priority 1997, dated 2003).
Several values for one entry are separate records, joined by “and”; a condition that tells them apart may be missing. Equal entries are not always repeated. Positions of bridges follow the written chain, without caps; N, C: chain ends. Residues, ends and D or L forms follow the SMILES beside them.

How the values were obtained:
[1] = target: T1, IGFBP-3 (Homo sapiens, UniProt P17936); assay: BIAcore competition assay, IGFBP-3 binding to immobilized IGF-II; conditions: 20 nM IGFBP-3; approximately 1500 RU immobilized IGF-II; read-out: IC50, inhibition of IGFBP-3 binding to IGF-II (BIAcore)
T1 sequence (P17936 28-291): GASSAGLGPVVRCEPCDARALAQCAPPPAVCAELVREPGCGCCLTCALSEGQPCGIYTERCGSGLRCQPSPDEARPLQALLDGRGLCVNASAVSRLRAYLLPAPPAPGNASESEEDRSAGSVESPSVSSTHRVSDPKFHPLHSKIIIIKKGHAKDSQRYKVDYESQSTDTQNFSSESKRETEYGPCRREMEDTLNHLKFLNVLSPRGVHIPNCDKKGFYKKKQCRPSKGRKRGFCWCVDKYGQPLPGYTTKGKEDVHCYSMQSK
Procedure: D. BIAcore™ Competition Assay (for IGFBP-3 Binders)
IGF-II was immobilized on a dextran chip for inhibition assays using a BIAcore™ 2000 surface-plasmon-resonance device (BIAcore, Inc., Piscataway, N.J.) to measure free binding protein. IGF-II was biotinylated as described above, and injected over a chip to which streptavidin had been coupled (BIAcore, Inc.) to give approximately 1500 RU of immobilized IGF-II. […] Serial dilutions of peptide were mixed with a constant concentration (20 nM) of IGFBP-3. After incubation for ≧1 hour at room temperature, an aliquot of 20 μl was injected at a flow rate of 20 μl/min over the IGF-II chip. Following the injection, a response reading was taken to measure the relative amount of IGFBP-3 bound to the IGF-II.

[2] = target: T2, recombinant human (rh) IGFBP-1 (Homo sapiens, UniProt P08833); assay: ^125I-IGF-I competitive binding plate assay, IGFBP-1; conditions: FIG. 36
T2 sequence (P08833 26-259): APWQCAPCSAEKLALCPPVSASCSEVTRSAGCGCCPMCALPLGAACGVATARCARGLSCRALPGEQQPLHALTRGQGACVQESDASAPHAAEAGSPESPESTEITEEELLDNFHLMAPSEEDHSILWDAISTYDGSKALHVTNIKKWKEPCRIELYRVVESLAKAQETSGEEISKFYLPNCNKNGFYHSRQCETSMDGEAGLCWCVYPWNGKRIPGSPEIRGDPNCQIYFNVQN
Procedure: (§1) The mutant (Leu^24,Ala^31)hIGF-I was also tested for its ability to displace radio-labeled rhIGF-I off the IGFBPs in a competitive binding assay. This assay involves coating recombinant human (rh) IGFBP-1 or rhIGFBP-3 (160 ng/ml) onto 96-well plates overnight, blocking the plates for one hour with 0.5% BSA, adding rhIGF-I (250-0.08 ng/ml) or (Leu^24,Ala^31)hIGF-I for 1 hour, then adding 20,000 cpm of ^125I-IGF-I and incubating for 2 hours before washing and counting.
(§2) As an additional assay of peptide activity, several peptides were tested in an assay using ^125I-labeled IGF-I to measure inhibition of IGFBP binding, as described in Example 1 (Assay 3). Serial dilutions of peptide were added to an IGFBP-1 or an IGFBP-3 plate. Thereafter, ^125I-labeled IGF-I was added and the plates were incubated for 2 hours. The plates were then washed and counted to determine the amount of bound IGF-I.

[3] = target: T3, IGFBP-1 (Homo sapiens, UniProt P08833); assay: KIRA assay of IGF-I activity with IGF-I plus IGFBP-1 and peptide; assay type: cell-based
T3 construct: biotin (chemical label, EZ-LINK NHS-SS-Biotin)
T3 sequence (P08833 26-259): T2 sequence (P08833 26-259)
Procedure: (§3) C. In Vitro Activation (KIRA)
(§4) The ability of several synthetic peptides to block IGF-I binding to IGFBPs and release functional IGF-I was tested in a KIRA assay of IGF-I activity, as described in Example 1. Cells were treated with IGF-I alone, peptide alone, peptide plus IGF-I, IGF-I plus binding protein (IGFBP-1 or IGFBP-3), or IGF-I plus binding protein (IGFBP-1 or IGFBP-3) and peptide.

[4] = target: T3, IGFBP-1; assay: Biotin-BP plate (ELISA) assay, biotinylated IGFBP-1 binding to IGF-I
Procedure: 1. Biotin-BP Assay (for IGFBP-1 Binders)
(§5) For inhibition of IGFBP-1 binding, IGFBP-1 (as well as IGFBP-3 as a control) were biotinylated as described above. MAXISORP™plates were coated and blocked as described above, using 2 μg/mL IGF-I. In a separate plate, serial dilutions of peptide were premixed with a constant concentration (20 nM) of biotinylated IGFBP-1. After 20 min. at room temperature, the mixture was added to the IGF-I plate. The peptide/IGFBP mix was then removed and the plate was washed ten times with PBS buffer containing 0.05% TWEEN-20™ surfactant. Bound biotin-IGFBP-1 was then detected using streptavidin-conjugated horse radish peroxidase, and a chromogenic substrate.
A second series of peptides made use of non-natural amino acids to probe whether other structural features such as an added methyl group at the alpha carbon, or an isomer (D-alanine) could affect peptide binding to IGFBP-1.
Substitutions at the N-terminus or C-terminus yielded affinity improvements. […] All of these peptides had similar or improved apparent affinity for IGFBP-1 as compared with bp1-01 and bp1-02 and are thus expected to increase the availability of IGF-I in an in vitro cell culture assay.

[5] = target: T1, IGFBP-3; assay: ^125I-IGF-I competitive binding plate assay, IGFBP-3; conditions: FIG. 35
Procedure: as §1, §2

[6] = target: T1, IGFBP-3; assay: BIAcore competition assay, IGFBP-3 binding to immobilized IGF-I; conditions: for IGF-I Inhibition IC50 (mut)/IC50 (wt): bp3-01-ox variants by BIAcore, wt = bp3-01-ox
Procedure: A. BIAcore™ Competition Assay (for IGFBP-3 Binders)
IGF-I was immobilized on a dextran chip for inhibition assays using a BIAcore™ 2000 surface-plasmon-resonance device (BIAcore, Inc., Piscataway, N.J.) to measure free binding protein. […] Serial dilutions of peptide were mixed with a constant concentration (40 nM) of IGFBP-3. After incubation for >1 hour at room temperature, an aliquot of 20 μL was injected at a flow rate of 20 μL/min over the IGF-I chip. Following the injection, a response reading was taken to measure the relative amount of IGFBP-3 bound to the IGF-I.

[7] = target: T1, IGFBP-3; assay: KIRA assay of IGF-I activity with IGF-I plus IGFBP-3 and peptide; assay type: cell-based; conditions: for effect on IGF-I activity in KIRA with IGF-I plus IGFBP-3: FIG. 37D
Procedure: as §3, §4
It is believed that this would drop to 30 uM with a 1:1 ratio.

[8] = target: T3, IGFBP-1; assay: BIAcore kinetics on immobilized IGFBP-1; assay type: binding; conditions: IGFBP-1 coupled to dextran chip
Source text: The kinetics of bp1-01 peptide variants were examined in a BIAcore™ (BIAcore, Inc., Piscataway, N.J.) assay using IGFBP-1 covalently coupled via EDC/NHS (as described by the manufacturer) to a dextran chip. […] The latter implies a half-life for peptide dissociation from IGFBP-1 of approximately 28 sec. The association rate constant is moderately fast, consistent with the notion that the peptide may not undergo significant conformation change upon binding to IGFBP-1.

[9] = target: T1, IGFBP-3; assay: Biotin-BP plate assay, biotinylated IGFBP-3 binding to IGF-I (control); conditions: FIG. 34
Procedure: as §5

[10] = tested on: endogenous IGFBPs present in human serum; assay: Displacement of ^125I-IGF-I from IGFBPs in human serum (FPLC-SEC); assay type: binding; conditions: human serum; peptide at 0.2 mM
Procedure: To determine if the IGF mutant could displace IGF-I from endogenous IGFBPs present in human serum, the following experiment was performed. Radiolabeled rhIGF-I (^125-IGF-I) was incubated with normal human serum samples at a concentration of 33 ng/ml for 16 hr at 4° C. to allow for the formation of […] complexes. […] The samples (n=3) were then analyzed by FPLC size-exclusion chromatography (FPLC-SEC) to determine the relative size and amounts of the ^125I-IGF-I:IGFBP complexes.
Data are expressed as cpm per fraction (n=1).
This Example tests an IGFBP-3-specific peptide, BP15, for its ability to block the binding of ^125I-IGF-I in human serum. Human serum was incubated with ^125I-IGF-I±the peptide and the amount of tracer bound to IGFBPs via size-exclusion chromatography was measured.

[11] = 40 nM IGFBP-3, 400 to 800 RU immobilized IGF-I, read-out: BIAcore Assay IC50, inhibition of IGF-I binding to IGFBP-3

Structure (SMILES)	IC50 [1]	inhibition of ^125I-IGF-I binding to an IGFBP-1 coated plate [2]	inhibition of ^125I-IGF-I binding to an IGFBP-3 plate [5]	IGF-I Inhibition IC50 (mut)/IC50 (wt) [6]	effect on IGF-I activity in KIRA with IGF-I plus IGFBP-3 [7]	IC50 [6, 11]	further results
CSCC[C@H](NC(=O)[C@H](CC(N)=O)NC(=O)[C@@H]1CSSC[C@H](NC(=O)[C@@H](NC(=O)[C@H](CCC(=O)O)NC(=O)[C@H](CCC(=O)O)NC(=O)[C@@H](N)CO)C(C)C)C(=O)N[C@@H](Cc2c[nH]c3ccccc23)C(=O)N2CCC[C@H]2C(=O)N[C@@H](C(C)C)C(=O)N[C@@H](C)C(=O)N[C@@H](CCC(=O)O)C(=O)N[C@@H](Cc2c[nH]c3ccccc23)C(=O)N[C@@H](Cc2ccc(O)cc2)C(=O)N[C@@H](CC(C)C)C(=O)N1)C(=O)N[C@@H](Cc1c[nH]c2ccccc12)C(=O)NCC(=O)O [BP3-01-ox] (H-SEEVCWPVAEWYLCNMWG-OH; disulfide 5-14; N-terminus and C-terminus assumed)	0.92 µM	did not inhibit	inhibition	1	no significant effect	–	effect on IGF-I activity in KIRA with IGF-I plus IGFBP-1 ([3]; FIG. 37B): no significant effect; inhibition of biotinylated IGFBP-1 binding to IGF-I plate ([4]; FIG. 33): little or no inhibition
CSCC[C@@H]1NC(=O)[C@H](Cc2c[nH]c3ccccc23)NC(=O)[C@@H]2CCCN2C(=O)CNC(=O)[C@H](CC(=O)O)NC(=O)[C@H](C)NC(=O)[C@@H](NC(=O)[C@@H](NC(=O)CNC(=O)[C@H](CCSC)NC(=O)[C@@H](N)CC(=O)O)C(C)C)CSSC[C@@H](C(=O)N[C@@H](CCC(=O)O)C(=O)N[C@@H](Cc2c[nH]c3ccccc23)C(=O)N[C@H](C(=O)N[C@@H](CCC(=O)O)C(=O)O)[C@@H](C)O)NC(=O)[C@H](C(C)C)NC(=O)[C@H](Cc2ccc(O)cc2)NC1=O [BP3-02-ox] (H-DMGVCADGPWMYVCEWTE-OH; disulfide 5-14; N-terminus and C-terminus assumed)	–	did not inhibit	inhibition	–	–	12 µM	–
CC(C)C[C@@H]1NC(=O)[C@H](Cc2c[nH]c3ccccc23)NC(=O)[C@H](CCC(N)=O)NC(=O)[C@H](CC(C)C)NC(=O)[C@@H]2CCCN2C(=O)CNC(=O)[C@H](C)NC(=O)[C@H](CCCNC(=N)N)NC(=O)[C@@H](NC(=O)CNC(=O)[C@@H](NC(=O)[C@H](CCC(=O)O)NC(=O)[C@@H](N)CO)C(C)C)CSSC[C@@H](C(=O)N[C@@H](CCC(=O)O)C(=O)N[C@@H](CCCCN)C(=O)N[C@@H](Cc2ccc(O)cc2)C(=O)N[C@@H](Cc2ccccc2)C(=O)NCC(N)=O)NC1=O [bp1-02] (H-SEVGCRAGPLQWLCEKYFG-NH2; disulfide 5-14; N-terminus assumed)	–	–	–	–	Neither of these peptides showed activity	–	kon ([8]; read-out: association rate constant): 230000 M⁻¹ s⁻¹; koff ([8]; read-out: dissociation rate constant / dissociation kinetics): 0.0503 s⁻¹; IC50 ([3]; peptide plus IGF-I plus IGFBP-1, read-out: IC50 for blocking the inhibition of IGF-I activity by IGFBP-1 (KIRA)): 0.187 µM; IC50 ([4]; 20 nM biotinylated IGFBP-1, IGF-I coated plate, read-out: ELISA IC50, inhibition of IGF-I binding to IGFBP-1): ~0.05 µM and 0.05 µM; IGF-I Inhibition IC50 (mut)/IC50 (wt) ([4]; g8 bp1-01 selectants by ELISA plate assay, wt = bp1-01): 0.37; inhibition of biotinylated IGFBP-3 binding to IGF-I plate [9]: no inhibition
CC(C)C[C@@H]1NC(=O)[C@H](Cc2ccc(O)cc2)NC(=O)[C@H](Cc2c[nH]c3ccccc23)NC(=O)[C@H](CCC(=O)O)NC(=O)[C@H](C)NC(=O)[C@H](C(C)C)NC(=O)[C@@H]2CCCN2C(=O)[C@H](Cc2c[nH]c3ccccc23)NC(=O)[C@@H](NC(=O)[C@@H](NC(=O)[C@H](CCC(=O)O)NC(=O)[C@H](CCC(=O)O)NC(=O)[C@@H](N)CO)C(C)C)CSSC[C@@H](C(=O)N[C@@H](CC(N)=O)C(=O)O)NC1=O [BP15] (H-SEEVCWPVAEWYLCN-OH; disulfide 5-14; N-terminus and C-terminus assumed)	0.78 µM	–	–	0.36	–	0.75 µM	decrease in ^125I-IGF-I associated with the 150-KD IGF/IGFBP-3/ALS complex [10]: ~42%; increase in the amount of free ^125I-IGF-I [10]: 59%; IC50 ([6]; bp3-01-ox variants by BIAcore competition assay, read-out: IGF-I Inhibition IC50): 0.72 µM; IC50 believed to result with a 1:1 ratio (KIRA) ([7]; IGFBP-3:IGF-1 1:1 ratio, not tested): 30 µM; IC50 ([7]; IGFBP-3:IGF-1 at a 3:1 ratio, read-out: IC50 for blocking of IGFBP-3 (activation of the KIRA assay)): 95 µM
CC(C)C[C@@H]1NC(=O)[C@H](Cc2ccc(O)cc2)NC(=O)[C@H](Cc2c[nH]c3ccccc23)NC(=O)[C@H](CCC(=O)O)NC(=O)[C@H](C)NC(=O)[C@H](C(C)C)NC(=O)[C@@H]2CCCN2C(=O)[C@H](Cc2c[nH]c3ccccc23)NC(=O)[C@@H](NC(=O)[C@@H](N)C(C)C)CSSC[C@@H](C(=O)N[C@@H](CC(N)=O)C(=O)O)NC1=O [BP17] (H-VCWPVAEWYLCN-OH; disulfide 2-11; N-terminus and C-terminus assumed)	5.1 µM	–	–	–	–	9 µM	–
